Measurements from patent publication US4282248A, “Pinene derivatives and pharmaceutical compositions containing the same” (priority 1978, dated 1981).

Columns and labels:
Type in all cases: in vivo
[1] = acetic acid induced writhing test (mouse writhing); conditions: for ED50: Mus musculus
Experimental: (§1) The analgetic activity was tested by the acetic acid induced writhing test (Sofia et al., J. Pharmacol.Expt.Therap. 18, 646, 1973), by the tail flick test (Grotto et al., Arch Intern.Pharmacodyn. 170, 257, 1967) and by the foot pressure test (Randall and Selito, Arch, Int. Pharmacodyn. 409, 1957). The central nervous system action was tested by the mouse ring test (Pertwee, Brit. J. Pharmacol. 46, 753, 1972).

[2] = tail flick test (mouse tail flick); conditions: for ED50: Mus musculus
Experimental: as §1

[3] = foot pressure test (rat foot pressure); conditions: for ED50: Rattus norvegicus
Experimental: as §1

SMILES | ED50 [1] [mg/kg] | Mouse tail flick ED50 [2] | ED50 [3] [mg/kg] | Mouse writhing ED50 [1] [mg/kg] | Rat foot pressure ED50 [3] | ED50 [2] [mg/kg]
CCCCCC(C)C(C)c1cc(O)c(C2C=C(CO)C3CC2C3(C)C)c(O)c1 (single isomer, unassigned) [VIIb(+), 4-Trans[2-(5-(1,2-dimethylheptyl)-resorcyl)]-10-hydroxy-pin-2-ene] | 5 | 30 mg/kg | 15 |  |  | 
CCCCCC(C)C(C)c1cc(O)c(C2C=C(COC(=O)C(C)(C)C)C3CC2C3(C)C)c(O)c1 (single isomer, unassigned) [VId(+), 4-trans-[2-(5-(1,2-dimethylheptyl)-resorcyl)]-10-hydroxy-pin-2-ene, 10 pivalate] | 10 |  | 30 |  |  | 
CCCCCC(C)C(C)c1cc(OC(C)=O)c(C2C=C(COC(=O)C(C)(C)C)C3CC2C3(C)C)c(OC(C)=O)c1 (single isomer, unassigned) [VIIId(-), 4-trans-[2-(5-(1,2-dimethylheptyl)-resorcyl diacetate)]-10-hydroxy-pin-2-ene-10-pivalate] |  | > 50 mg/kg |  | 25 | > 50 mg/kg | 
CCCCCC(C)C(C)c1cc(O)c(C2CC(C)C3CC2C3(C)C)c(O)c1 (stereo not drawn) [Xb(+), 4-Trans-[-(5-(1,2-dimethylheptyl)-resorcyl)]-pinane] |  | ~ 50 mg/kg |  | 6 | ~ 50 mg/kg | 
CCCCCCC(C)(C)c1cc(O)c(C2C=C(COC(C)=O)C3CC2C3(C)C)c(O)c1 (single isomer, unassigned) [VIa(+)] | 10 | 30 mg/kg | 35 |  |  | 
CCCCCCC(C)(C)c1cc(OC(C)=O)c(C2C=C(COC(C)=O)C3CC2C3(C)C)c(OC(C)=O)c1 (single isomer, unassigned) [VIIIa(-), 4-trans-[2-(5-(1,1-dimethylheptyl)-resorcyl)]-10-hydroxy-pin-2-ene, triacetate] |  | 30 mg/kg |  | 18 | 50 mg/kg | 
CCCCCCC(C)(C)c1cc(O)c(C2CC(C)C3CC2C3(C)C)c(O)c1 (stereo not drawn) [Xa(-), 4-trans-[2-(5-(1,1-dimethylheptyl)-resorcyl)]-pinane] |  | ~ 50 mg/kg |  | 9 | ~ 50 mg/kg | 
CCCCCC(C)C(C)c1cc(O)c(C2C=C(COC(=O)C(C)(C)C)C3CC2C3(C)C)c(O)c1 (single isomer, unassigned) [VId(-), 4-trans-[2-(5-(1,2-dimethylheptyl)-resorcyl)]-10-hydroxy-pin-2-ene, 10 pivalate] |  | 10 mg/kg |  | < 10 | 30 mg/kg | 
CCCCCCC(C)(C)c1cc(O)c(C2C=C(COC(C)=O)C3CC2C3(C)C)c(O)c1 (single isomer, unassigned) [VIa(-)] |  | 10 mg/kg |  | 10 | 25 mg/kg | 
CCCCCCC(C)(C)c1cc(OC(C)=O)c(C2C=C(COC(=O)C(C)(C)C)C3CC2C3(C)C)c(OC(C)=O)c1 (single isomer, unassigned) [VIIIc(+)] | 25 |  | > 50 |  |  | > 50
CCCCCC(C)C(C)c1cc(O)c(C2C=C(CO)C3CC2C3(C)C)c(O)c1 (single isomer, unassigned) [VIIb(-), 4-Trans-[2-(5-(1,2-dimethyheptyl)-resorcyl)]-10-hydroxy-pin-2-ene] |  | 6 mg/kg |  | 7 | 25 mg/kg | 
CCCCCCC(C)(C)c1cc(OC(C)=O)c(C2C=C(COC(=O)C(C)(C)C)C3CC2C3(C)C)c(OC(C)=O)c1 (single isomer, unassigned) [VIIIc(-)] |  | > 50 mg/kg |  | 25 | > 50 mg/kg | 
CCCCCC(C)C(C)c1cc(OC(C)=O)c(C2C=C(COC(C)=O)C3CC2C3(C)C)c(OC(C)=O)c1 (single isomer, unassigned) [VIIIb(-), 4-trans-[2-(5-(1,2-dimethylpheptyl)]-resorcyl)-10-hydroxy-pin-2-ene, triacetate] |  | 30 mg/kg |  | 10 | 50 mg/kg | 
CCCCCC(C)C(C)c1cc(O)c(C2C=C(COC(C)=O)C3CC2C3(C)C)c(O)c1 (single isomer, unassigned) [VIb(-)] |  | 10 mg/kg |  | 10 | 25 mg/kg | 
CCCCCCC(C)(C)c1cc(OC(C)=O)c(C2C=C(COC(C)=O)C3CC2C3(C)C)c(OC(C)=O)c1 (single isomer, unassigned) [VIIIa(+), 4-Trans-[2-(5-(1,1-dimethylheptyl)-resorcyl)]-10-hydroxy-pin-2-ene triacetate] | 18 |  | 50 |  |  | 50
CCCCCC(C)C(C)c1cc(OC(C)=O)c(C2C=C(COC(=O)C(C)(C)C)C3CC2C3(C)C)c(OC(C)=O)c1 (single isomer, unassigned) [VIIId(+), 4-trans-[2-(5-(1,2-dimethylheptyl)-resorcyl diacetate)]-10-hydroxy-pin-2-ene-10-pivalate] | 25 |  | > 50 |  |  | > 50
CCCCCCC(C)(C)c1cc(O)c(C2C=C(CO)C3CC2C3(C)C)c(O)c1 (single isomer, unassigned) [VIIa(+), 4-Trans-[2-(5-(1,1-dimethylheptyl)-resorcyl)]-10-hydroxy-pin-2-ene] | 5 | 30 mg/kg | 15 |  |  | 
CCCCCC(C)C(C)c1cc(O)c(C2C=C(COC(C)=O)C3CC2C3(C)C)c(O)c1 (single isomer, unassigned) [VIb(+)] | 10 | 30 mg/kg | 35 |  |  | 
CCCCCCC(C)(C)c1cc(O)c(C2C=C(COC(=O)C(C)(C)C)C3CC2C3(C)C)c(O)c1 (single isomer, unassigned) [VIc(-)] |  | 10 mg/kg |  | < 10 | 30 mg/kg | 
CCCCCC(C)C(C)c1cc(O)c(C2CC(C)C3CC2C3(C)C)c(O)c1 (single isomer, unassigned) [Xb(-), 4-Trans-[-(5-(1,2-dimethylheptyl)-resorcyl)]-pinane] | 6 |  | ~50 |  |  | ~50
CCCCCCC(C)(C)c1cc(O)c(C2C=C(COC(=O)C(C)(C)C)C3CC2C3(C)C)c(O)c1 (single isomer, unassigned) [VIc(+)] | 10 |  | 30 |  |  | 
CCCCCC(C)C(C)c1cc(OC(C)=O)c(C2C=C(COC(C)=O)C3CC2C3(C)C)c(OC(C)=O)c1 (single isomer, unassigned) [VIIIb(+), 4-Trans-[2-(5-(1,2-dimethylheptyl-resorcyl)]-10-hydroxy-pin-2-ene, triacetate] | 10 |  | 50 |  |  | 50
CCCCCCC(C)(C)c1cc(O)c(C2C=C(CO)C3CC2C3(C)C)c(O)c1 (single isomer, unassigned) [VIIa(-), 4-trans-[2-(5-(1,1-dimethylheptyl)-resorcyl)]-10-hydroxy-pin-2-ene] |  | 6 mg/kg |  | 7 | 25 mg/kg | 
CCCCCCC(C)(C)c1cc(O)c(C2CC(C)C3CC2C3(C)C)c(O)c1 (stereo not drawn) [Xa(+), 4-Trans-[2-(5-(1,1-dimethylheptyl)-resorcyl)]-pinane] |  | ~ 50 mg/kg |  | 15 | ~ 50 mg/kg | 
